From patent publication US11321826B2, “High throughput method for accurate prediction of compound-induced liver injury” (AGENCY FOR SCIENCE, TECHNOLOGY AND RESEARCH, priority 2016, dated 2022)
Like-named read-outs stand apart in the source and are kept apart here. Where a SMILES comes first, the peptide text is derived from it.

Key:
hepatocytes in vivo = conditions: cited from earlier work
[1] = test system: other organs than the liver; conditions: in vivo; cited from earlier work
HepaRG cells = test: High-content imaging of HepaRG cells after fluorescent staining of RELA and nuclear DNA; conditions: 16 h treatment; puromycin 100 μg/mL, acarbose 1000 μg/mL, tetracycline 1000 μg/mL, ethylene glycol 100 μg/mL, lithium chloride 1000 μg/mL; FIG. 3
Procedure: The HepG2 cells were cultured in T75 Corning Costar flasks with Dulbecco's modified eagle medium (DMEM) supplemented with 10% fetal bovine serum (FBS) and 1% penicillin-streptomycin. The HepG2 cells were seeded into 384-well black plates with transparent bottom (#781091; Greiner, Kremsmuenster, Austria) at a density of 10.000 cells/cm^2. The HepG2 cells were cultured for three days to attain confluency before overnight compound treatment of sixteen hours. The HepaRG cells were directly seeded at a density of 250.000 cells/cm^2 into 384-well black plates with transparent bottom (#781091; Greiner) coated with 100 μg/mL collagen I. For the first twenty-four hours of cultivation a Williams E medium, supplemented with HepaRG Thaw, Plate & General Purpose medium was used. […]
Screening was performed by using a dose-range of the following seven concentrations for each compound: 2 μM, 15 μM, 63 μM, 125 μM, 250 μM, 500 μM and 1 mM. […] Z′ values of each plate were calculated and values were all above 0.5, ranging from 0.62 to 0.89.
Cells were fixed for six hours with 3.7% formaldehyde in phosphate-buffered saline (PBS) after sixteen hours of compound exposure. […] F-actin was detected on every plate with rhodamine phalloidin (#R415; 1:100; Invitrogen, Singapore). […]

[2] = classification based on literature on compound-induced clinical effects in humans

COC(=O)[C@H](Cc1ccccc1)NC(=O)[C@@H](N)CC(=O)O [Aspartame] (H-Asp-Phe-OMe)
toxicity for hepatocytes in vivo (hepatocytes in vivo; [2]): not toxic

Cn1cnc([N+](=O)[O-])c1Sc1ncnc2nc[nH]c12 [Azathioprine]
toxicity for hepatocytes in vivo (hepatocytes in vivo; [2]): toxic

[Cl][Cd][Cl] [Cadmium Chloride]
toxicity for hepatocytes in vivo (hepatocytes in vivo; [2]): toxic

Cn1c(=O)c2c(ncn2C)n(C)c1=O [Caffeine]
toxicity for hepatocytes in vivo (hepatocytes in vivo; [2]): not toxic

OCCO [Ethylene glycol, ethylene glycol]
toxicity in humans for other organs than the liver [1]: nephrotoxic and neurotoxic
phenotypic changes / altered distribution of RELA (NF-κB p65) in HepaRG cells versus vehicle control (HepaRG cells): did not induce obvious phenotypic changes

CN1CCCC1c1cccnc1 (centres unmarked) [Nicotine]
toxicity for hepatocytes in vivo (hepatocytes in vivo; human, in vivo): not toxic

COc1ccc(C[C@H](N)C(=O)N[C@H]2[C@@H](O)[C@H](n3cnc4c(N(C)C)ncnc43)O[C@@H]2CO)cc1 [Puromycin, puromycin]
toxicity for hepatocytes in vivo (hepatocytes in vivo; [2]): toxic

C[C@H]1O[C@H](O[C@H]2[C@H](O)[C@@H](O)[C@@H](O[C@H]3[C@H](O)[C@@H](O)C(O)O[C@@H]3CO)O[C@@H]2CO)[C@H](O)[C@@H](O)[C@@H]1N[C@H]1C=C(CO)[C@@H](O)[C@H](O)[C@H]1O (some centres unmarked) [acarbose]
toxicity for hepatocytes in vivo (hepatocytes in vivo; [2]): toxic for hepatocytes in vivo

[Cl-].[Li+] [lithium chloride]
toxicity in humans for other organs than the liver [1]: nephrotoxic

CN(C)[C@@H]1C(O)=C(C(N)=O)C(=O)[C@@]2(O)C(O)=C3C(=O)c4c(O)cccc4[C@@](C)(O)[C@H]3C[C@@H]12 [tetracycline]
toxicity for hepatocytes in vivo (hepatocytes in vivo; [2]): toxic for hepatocytes in vivo
